Patent publication US8637684B2, “Tautomycetin and tautomycetin analog biosynthesis” (Wisconsin Alumni Research Foundation, priority 2010, dated 2014)

Tests used:
PP2A = settings: literature values; cited from earlier work
CD45 = molecular target: T1, CD45 (Homo sapiens, UniProt P08575); assay: PTP activity assay with pNPP as substrate: CD45; type: biochemical; settings: pNPP as substrate at Km, pH 7.0, 25° C., I = 0.15 M
T1 sequence (P08575 26-1306): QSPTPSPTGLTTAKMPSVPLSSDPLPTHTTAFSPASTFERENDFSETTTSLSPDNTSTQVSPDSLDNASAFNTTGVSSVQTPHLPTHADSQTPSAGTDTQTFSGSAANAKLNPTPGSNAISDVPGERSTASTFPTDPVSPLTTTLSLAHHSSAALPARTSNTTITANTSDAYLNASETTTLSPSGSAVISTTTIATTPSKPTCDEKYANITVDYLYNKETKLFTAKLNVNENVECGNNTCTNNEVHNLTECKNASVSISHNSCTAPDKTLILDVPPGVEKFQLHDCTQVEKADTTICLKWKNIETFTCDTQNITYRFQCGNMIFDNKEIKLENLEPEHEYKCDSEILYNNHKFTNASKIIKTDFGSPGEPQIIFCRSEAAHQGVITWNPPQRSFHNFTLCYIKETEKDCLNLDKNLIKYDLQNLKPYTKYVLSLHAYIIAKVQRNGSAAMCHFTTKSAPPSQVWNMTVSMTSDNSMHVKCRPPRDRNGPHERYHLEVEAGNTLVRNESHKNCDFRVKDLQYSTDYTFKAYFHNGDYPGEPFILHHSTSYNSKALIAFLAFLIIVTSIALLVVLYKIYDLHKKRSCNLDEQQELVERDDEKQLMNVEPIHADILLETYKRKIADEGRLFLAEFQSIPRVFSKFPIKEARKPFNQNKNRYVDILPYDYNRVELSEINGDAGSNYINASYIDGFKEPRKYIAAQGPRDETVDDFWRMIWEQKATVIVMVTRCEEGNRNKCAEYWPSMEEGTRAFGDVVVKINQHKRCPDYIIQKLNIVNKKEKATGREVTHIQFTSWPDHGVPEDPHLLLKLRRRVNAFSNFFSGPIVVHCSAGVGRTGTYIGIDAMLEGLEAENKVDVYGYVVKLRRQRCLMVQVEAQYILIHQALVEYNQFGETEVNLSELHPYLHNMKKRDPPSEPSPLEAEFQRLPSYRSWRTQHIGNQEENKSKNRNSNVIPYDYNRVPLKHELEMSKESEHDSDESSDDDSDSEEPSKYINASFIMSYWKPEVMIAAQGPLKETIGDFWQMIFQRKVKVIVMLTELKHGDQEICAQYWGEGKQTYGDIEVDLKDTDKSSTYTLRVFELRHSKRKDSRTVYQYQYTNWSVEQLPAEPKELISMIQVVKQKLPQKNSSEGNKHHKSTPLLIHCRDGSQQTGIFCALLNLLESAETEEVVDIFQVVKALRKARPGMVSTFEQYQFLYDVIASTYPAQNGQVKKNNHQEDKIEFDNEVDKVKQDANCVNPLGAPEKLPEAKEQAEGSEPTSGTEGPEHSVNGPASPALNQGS
Procedure: (§1) The PTP activity was assayed using pNPP as a substrate at 25° C. in 50 mM 3,3-dimethylglutarate buffer, pH 7.0, containing 1 mM EDTA with an ionic strength of 0.15 M adjusted by NaCl. TTM, TTN and the engineered analogs were analyzed for inhibition of a panel of PTPs at 10 μM compound concentration. For each enzyme screened, test compounds were diluted to 20 μM in 100 μL and combined with 50 μL pNPP at a concentration of 4×Km. The reaction was initiated by the addition of 50 μL of 4× concentrated enzyme and pNPP was allowed to convert to the product p-nitrophenol. The reaction was quenched by the addition of 50 μL of 5N NaOH. Nonenzymatic hydrolysis of pNPP was corrected by measuring the control without the addition of enzyme. Production of p-nitrophenol was monitored by a Spectra MAX385 microplate spectrophotometer (Molecular Devices) at 405 nm using a molar extinction coefficient of 18,000 M^−1 cm^−1. IC50 values were calculated by fitting the absorbance at 405 nm versus inhibitor concentration to the following equation: AI/A0=IC50/(IC50+[I]) where AI is the absorbance at 405 nm of the sample in the presence of inhibitor; Ao is the absorbance at 405 nm in the absence of inhibitor; and [I] is the concentration of the inhibitor.

[1] = tested on: GM-CSF induced ERK1/2 activation in macrophage progenitors; assay: GM-CSF induced ERK1/2 activation in macrophage progenitors, immunoblot; type: cell-based; settings: 2 μM TTN for 2 hours, GM-CSF 50 ng/mL
Procedure: Bone marrow low density mononuclear cells (LDMNCs) were transduced with MIEG3 (empty vector), MIEG3-WT SHP2, or MIEG3-SHP2/E76K, sorted based on enhanced green fluorescent protein (EGFP) expression, and cultured for 5 days in M-CSF 100 ng/mL to generate macrophage progenitors, as previously described (Chan et al., 2005). Cells were serum- and growth factor-deprived for 16 hours, treated with 2 μM TTN for 2 hours, and stimulated with GM-CSF 50 ng/mL followed by preparation of protein extracts. Extracts were evaluated by immunoblot using α-phospho-ERK1/2 for activated ERK levels and α-ERK1/2 for total ERK levels (Cell Signaling Technology, Beverly, Mass.).
For biochemical studies, macrophage progenitor cells expressing empty vector (MIEG3), wild-type SHP2, or SHP2/E76K were serum- and growth factor-deprived for […]. Cells were pre-treated with DMSO or 2 μM TTN for 2 hours, and then cultures either remained unstimulated or were stimulated with GM-CSF at 50 ng/mL for 60 minutes. […] They next examined the effect of TTN on GM-CSF-stimulated hyperproliferation of SHP2/E76K-expressing hematopoietic progenitors. […] To provide further evidence that SHP2 is a molecular target of TTN, the inventors determined the X-ray crystal structure of SHP2 in complex with TTN D-1, as crystallization attempts for the SHP2-TTN complex were unsuccessful. […]

SHP1 = SHP1 (Homo sapiens, UniProt P29350); assay: PTP activity assay with pNPP as substrate: SHP1; type: biochemical; settings: pNPP as substrate at Km, pH 7.0, 25° C., I = 0.15 M
SHP1, sequence (P29350 whole entry): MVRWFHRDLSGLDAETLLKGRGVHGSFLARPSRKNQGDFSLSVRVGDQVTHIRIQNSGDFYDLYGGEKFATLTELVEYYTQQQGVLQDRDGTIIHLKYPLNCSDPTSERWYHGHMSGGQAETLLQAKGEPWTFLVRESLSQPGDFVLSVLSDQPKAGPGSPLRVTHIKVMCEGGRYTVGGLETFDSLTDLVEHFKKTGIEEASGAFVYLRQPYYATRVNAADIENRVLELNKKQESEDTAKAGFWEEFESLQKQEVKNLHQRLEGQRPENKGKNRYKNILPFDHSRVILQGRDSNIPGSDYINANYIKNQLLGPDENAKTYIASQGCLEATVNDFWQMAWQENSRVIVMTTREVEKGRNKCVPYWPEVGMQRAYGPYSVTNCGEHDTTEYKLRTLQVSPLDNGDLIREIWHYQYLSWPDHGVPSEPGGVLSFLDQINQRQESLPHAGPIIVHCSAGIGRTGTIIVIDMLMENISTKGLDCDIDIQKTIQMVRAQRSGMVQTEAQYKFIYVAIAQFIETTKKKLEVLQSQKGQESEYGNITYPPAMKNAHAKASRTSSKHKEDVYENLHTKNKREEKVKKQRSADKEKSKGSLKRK
Procedure: as §1

## tautomycetin [TTN]
PP2A
  IC50: 0.062 µM
CD45
  IC50: > 50 µM
[1]
  effect on ERK1/2 hyperactivation in SHP2/E76K-expressing cells: effectively inhibited
  effect on GM-CSF induced ERK1/2 activation in macrophage progenitors: abrogated
SHP1
  IC50: 14.6 µM
